Experimental data as given in the AptaBench aptamer set (doi:10.1093/nar/gkaf219).

How the values were obtained:
Settings in all cases: 10 mM Tris-HCl, pH 7.4
[1] = system: DNA aptamer or structured DNA CTTACGACCGACTTTTGGGTGTTCTGGGTGGGATGTGGGTCGTAAG
[2] = system: DNA aptamer or structured DNA CTTACGACCTAAGGGTCTGGAGTGGTTGTTATACGCTGGTCGTAAG
[3] = system: DNA aptamer or structured DNA GGGACGACTAGCGGTGTTGGTCGGAGTGGTGGAATCTAGTCGTCCC
[4] = system: DNA aptamer or structured DNA GGGACGACGCGTACCATGGGTAGTTGCACGTCGTCCAAGTCGTCCC
[5] = system: DNA aptamer or structured DNA GGGACGACAAAAATGGAAGCATTGGTTGTTGGTGCTTTGTCGTCCC
[6] = system: DNA aptamer or structured DNA GGGACGACAGGGCACGTCTCGGCATCGAGGGTTTCGCGGTCGTCCC
[7] = system: DNA aptamer or structured DNA CTTACGACTAGGTGGGGGTCGGCGCCGTAGGTGGGGTAGTCGTAAG
[8] = system: DNA aptamer or structured DNA GGGACGACTAGCCGTGGCGTTGTCCGAACCAGTGAGTAGTCGTCCC
[9] = system: DNA aptamer or structured DNA CTTACGACGGGTTCAGAGGGTCAACGGTGGTGTTGTCGTCGTAAG
[10] = system: DNA aptamer or structured DNA GGGACGACGGGAAGGTTGGCAGCGCATCGTCGGGTCACGTCGTCCC
[11] = system: DNA aptamer or structured DNA CTTACGACCACCATGGGAATCGGGTGGCTTGGAGGTGCGTCGTAAG
[12] = system: DNA aptamer or structured DNA CTTACGACAGGGGTACCCGCGTATAACGTGGCGTTCGTGTCGTAAG
[13] = system: DNA aptamer or structured DNA GGGACGACATGCGTCGAAAAGACCCCTGAGGGCAGCTGGTCGTCCC
[14] = system: DNA aptamer or structured DNA CTTACGACGAGCATCGGTTTTTTCGGTGATGTCTGGGAGTCGTAAG
[15] = system: DNA aptamer or structured DNA GGGACGACGGCTTGCATTGAGCAGAAGGGGTACACGCTGTCGTCCC
[16] = system: DNA aptamer or structured DNA CTTACGACTAGTCGGTGGGGGGTAGGCGGAGGGTTGTTGTCGTAAG
[17] = system: DNA aptamer or structured DNA CTTACGACTACGGTTGGTTCAGGGGGTAGGTGCTTTGGGTCGTAAG
[18] = system: DNA aptamer or structured DNA GGGACGACAAGTCAGGCCTGTCTCAGCGAGTTCGACATGTCGTCCC
[19] = system: DNA aptamer or structured DNA GGGACGACGGGGGGAGTAATGTTTGTGTGGGGGAGCCGGTCGTCCC
[20] = system: DNA aptamer or structured DNA CTTACGACGGTGGTGTGGTACTGGGCTTGGGGGGTGTTGTCGTAAG
[21] = system: DNA aptamer or structured DNA GGGACGACGCTAGGGGATCTTTTGGGGTTTGTATGGGCGTCGTCCC
[22] = system: DNA aptamer or structured DNA GGGACGACTAGTGCCTTCGTGTTGTTCAGGAATCCGGTTCTGTCGTCCC
[23] = system: DNA aptamer or structured DNA GGGACGACTAGTGCCTTCGCGCTGTGCGGGAATCCGGTTCTGTCGTCCC
[24] = system: DNA aptamer or structured DNA GGGACGACTAGTGCCTTCGTGTTGTTCGGGAATCCGGTTCTGTCGTCCC
[25] = system: DNA aptamer or structured DNA GGGACGACGGCACGAGGTTATTCGTTGGTTGCACTGCGCTGGGAGGAAGTCGTCCC
[26] = system: DNA aptamer or structured DNA GGGACGACCAGGATTCGGTTCGGAAAGTCCAGTGCCTCGTTGGTCGTCCC
[27] = system: DNA aptamer or structured DNA GGGACGACGGCACGAGGTTATTCGTTGGTTGCACTGCGCTGGGAGGCAGTCGTCCC
[28] = system: DNA aptamer or structured DNA GGGACGACGGCACGAGGTAATTCGTTGGTTGCACTGCGCTGGGAGGCAGTCGTCCC
[29] = system: DNA aptamer or structured DNA GGGACGACTAGTGCCTTCGCGTTGTACGGGAATCCGGTTCTGTCGTCCC
[30] = system: DNA aptamer or structured DNA CTTACGACTAGTTCTGAGGAATCAACGTCGGTGTAGTTGTCGTAAG
[31] = system: DNA aptamer or structured DNA GGGACGACTAGTGCCTTCGCGTTGTTCGGGAATCCGGTTCTGTCGTCCC
[32] = system: DNA aptamer or structured DNA GGGACGACGGGGATTCGCGGATTCGGAGAAAAGGGCTCGTACGTCGTCCC
[33] = system: DNA aptamer or structured DNA CTTACGACTAGGTGTGGGTCGGCTCAATTCGGAGGGTAGTCGTAAG
[34] = system: DNA aptamer or structured DNA TTCAAATCTAGCGCAGGTAGGGGTGTAGGCGTGGGGGTAAGTCTAGATTTGAA
[35] = system: DNA aptamer or structured DNA GGGACGACGGTACCCGCCGGTGCAGGATCTGGGGTGGTGTCGTCCC
For binding call in this document: call rule not given here.

binding call [16] | binding call [17] | SMILES | binding call [1] | binding call [2] | binding call [3] | binding call [5] | binding call [7] | binding call [11] | binding call [12] | binding call [14] | binding call [15] | binding call [18] | binding call [19] | binding call [8] | binding call [13] | binding call [24] | binding call [26] | binding call [32] | also measured
 |  | CC(=O)Oc1ccc2c3c1O[C@H]1[C@@H](OC(C)=O)C=C[C@H]4[C@@H](C2)N(C)CC[C@@]341 | no binding | no binding | no binding | no binding | no binding | binds | no binding | no binding |  |  |  |  |  |  |  |  | Kd [4]: 5620 nM; Kd [6]: 4740 nM; Kd [8]: 2610 nM; binding call [9]: no binding; Kd [10]: 2400 nM; Kd [13]: 1110 nM
binds | binds | NCCc1ccc(O)c(O)c1 | no binding | no binding |  |  | binds |  |  |  |  |  |  |  |  | no binding | binds | no binding | binding call [20]: no binding; binding call [21]: binds; binding call [22]: binds; binding call [23]: no binding; binding call [25]: no binding; binding call [27]: binds; binding call [9]: no binding; binding call [28]: binds; binding call [29]: no binding; binding call [30]: no binding; binding call [31]: binds; binding call [33]: no binding
 |  | C=CCN1CC[C@]23c4c5ccc(O)c4O[C@H]2C(=O)CC[C@@]3(O)[C@H]1C5 |  |  |  | no binding |  |  |  |  | binds |  | no binding | no binding |  | no binding | no binding | no binding | binding call [4]: no binding; binding call [6]: no binding
 |  | O=C1CC[C@@]2(O)[C@H]3Cc4ccc(O)c5c4[C@@]2(CCN3CC2CC2)[C@H]1O5 |  |  |  | no binding |  |  |  |  | no binding | no binding |  | no binding | no binding | no binding | no binding | no binding | binding call [4]: no binding; binding call [29]: no binding; binding call [10]: no binding
no binding | binds | CCOC(=O)c1ccc(N)cc1 |  |  |  | no binding |  | no binding | no binding | no binding |  | no binding | no binding |  | no binding |  |  |  | binding call [34]: no binding; binding call [33]: no binding
 |  | COC(=O)[C@@H]1C2CCC(C[C@@H]1OC(=O)c1ccccc1)N2C (stereo partly drawn) |  |  | binds | no binding |  | no binding | no binding | no binding | no binding |  | no binding |  |  |  |  |  | binding call [35]: no binding; Kd [20]: 335 nM; Kd [16]: 122 nM; Kd [2]: 218 nM; Kd [17]: 198 nM; binding call [21]: binds; binding call [23]: no binding; binding call [6]: no binding; Kd [7]: 467 nM; Kd [9]: 49 nM; Kd [30]: 33 nM; Kd [33]: 461 nM
 |  | COc1ccc2c3c1O[C@H]1C(=O)CC[C@@]4(O)[C@@H](C2)N(C)CC[C@]314 |  | no binding | no binding |  | no binding |  |  |  |  |  |  |  |  |  |  |  | Kd [15]: 790 nM; Kd [18]: 450 nM; Kd [19]: 1190 nM; binding call [34]: no binding; binding call [30]: no binding
binds | no binding | Cn1c(=O)c2c(ncn2C)n(C)c1=O |  |  |  |  |  | no binding | no binding | no binding | no binding | binds | no binding | no binding |  |  |  |  | 
 | no binding | C=C[C@H]1CN2CC[C@@H]1C[C@H]2[C@H](O)c1ccnc2ccc(OC)cc12 | no binding |  | binds | no binding | no binding | binds | no binding | no binding | binds |  | no binding | no binding |  | no binding | binds | no binding | binding call [35]: binds; binding call [20]: binds; binding call [21]: binds; binding call [22]: no binding; binding call [23]: binds; binding call [6]: no binding; binding call [25]: binds; binding call [27]: binds; binding call [28]: no binding; binding call [30]: no binding; binding call [10]: no binding; binding call [31]: no binding

SMILES | binding call [16] | binding call [17] | binding call [1] | binding call [2] | binding call [3] | binding call [5] | binding call [7] | binding call [11] | binding call [12] | binding call [14] | binding call [15] | binding call [18] | binding call [19] | binding call [8] | binding call [13] | binding call [24] | binding call [26] | binding call [32] | also measured
CN1C(=O)CN=C(c2ccccc2)c2cc(Cl)ccc21 | no binding | no binding |  | no binding | no binding |  | no binding |  |  |  | no binding | no binding | no binding | no binding | no binding |  |  |  | binding call [9]: no binding; binding call [10]: no binding
CN[C@@H](C)Cc1ccccc1 |  | no binding | no binding |  |  |  |  | binds | no binding | no binding | no binding | no binding |  | no binding | no binding |  |  |  | Kd [35]: 18000 nM; Kd [21]: 2500 nM; Kd [23]: 7500 nM; binding call [4]: no binding; Kd [25]: 3300 nM; Kd [27]: 7000 nM; binding call [34]: no binding; Kd [28]: 6900 nM; Kd [31]: 5100 nM; binding call [33]: no binding
